Test results published in patent US20220096468A1 (priority 2018, published 2022).
Values joined by “and” are separate entries in the source; they are usually repeats but may differ in a detail not shown here. Equal entries are not always repeated. Where two headings read alike, the source gives them in different places. Marks after values point to notes of the source that are not given here.

Key:
Punta Toro virus = assay type: cell-based
[1] = system: influenza virus (PR/8(H1N1)); experiment: microbe, parasite or virus in culture; assay type: cell-based; details: for IC50: unidentified influenza virus, MDCK, MDCK cells
[2] = biological target: RdRp of the influenza virus (replicon activity) (Influenza A virus, UniProt P03431); experiment: Influenza virus RdRp replicon reporter (Luc) assay in transduced 293T cells; assay type: cell-based, Influenza A/PR/8/34 (H1N1); details: for IC50: read-out: T-705 50% inhibitory concentration; for inhibition at 10 µM: read-out: Replicon inhibiting percentage
Chain of RdRp of the influenza virus (replicon activity) (P03431 whole entry, looked up): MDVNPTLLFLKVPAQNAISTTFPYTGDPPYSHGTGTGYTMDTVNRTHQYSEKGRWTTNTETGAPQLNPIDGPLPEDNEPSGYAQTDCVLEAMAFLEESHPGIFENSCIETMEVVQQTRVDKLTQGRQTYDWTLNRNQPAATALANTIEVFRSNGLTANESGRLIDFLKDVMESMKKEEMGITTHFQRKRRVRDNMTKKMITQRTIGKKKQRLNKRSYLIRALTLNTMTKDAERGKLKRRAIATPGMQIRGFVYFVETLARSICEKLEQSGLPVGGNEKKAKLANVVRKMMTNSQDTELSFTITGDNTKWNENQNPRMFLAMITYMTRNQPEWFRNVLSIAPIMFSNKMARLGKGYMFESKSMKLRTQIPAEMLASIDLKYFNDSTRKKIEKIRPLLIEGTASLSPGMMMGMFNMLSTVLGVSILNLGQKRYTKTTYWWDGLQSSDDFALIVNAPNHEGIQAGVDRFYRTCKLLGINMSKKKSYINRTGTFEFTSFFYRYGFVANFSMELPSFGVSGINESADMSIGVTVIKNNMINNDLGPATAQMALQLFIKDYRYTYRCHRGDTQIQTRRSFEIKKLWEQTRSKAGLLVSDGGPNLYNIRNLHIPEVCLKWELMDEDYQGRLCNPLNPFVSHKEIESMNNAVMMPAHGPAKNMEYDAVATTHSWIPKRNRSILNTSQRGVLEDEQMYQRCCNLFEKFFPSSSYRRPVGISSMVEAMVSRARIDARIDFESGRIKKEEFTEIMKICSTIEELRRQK

[3] = system: influenza virus (PR/8(H1N1)); assay type: cell-based
293T cells = experiment: Amount of intracellular T-705RTP in 293T cells by LC/MS/MS; assay type: cell-based, human; details: 293T cells cultured 24 hours with T-705 and 6-mercaptopurine; FIG. 1
Experimental: As described above, the pyrazine derivative or a salt thereof undergoes ribosyl phosphorylation in a cell. […] In order to examine whether or not the effect of 6-mercaptopurine to reinforce the activity of T-705, which was shown in Test Example 1, is caused by a change in the amount of T-705RTP, the amount of T-705RTP in 293T cells was measured under the treatment with 6-mercaptopurine.
293T cells (5×10^5 cells) seeded in each well of a 6-well plate were cultured with a vehicle (0.3% DMSO) or with 6-mercaptopurine, T-705, or the two drugs in various concentrations, under conditions of 5% CO2 at 37° C. for 24 hours.
After completion of the culture, the reaction mixture was washed with 2 ml of PBS, and 300 μl of trypsin was then added thereto. The obtained mixture was left at rest at 37° C. for 5 minutes, and the cells were then removed. Subsequently, 400 μl of a trypsin inhibitor was added and suspended into the cells, and the cell suspension was then recovered in a 1.5-ml tube. The cell suspension was centrifuged at 1,000 rpm at 4° C. for 2 minutes (MX-301, TOMY), and 500 μl of a supernatant was then removed. […]
The measurement of the number of cells and an LC/MS/MS analysis were carried out, and the amount of T-705RTP in each sample was then measured. […]

[4] = HEK-293T, T-705 10 μM, antimetabolite 0.08 μM
[5] = HEK-293T, T-705 10 μM, antimetabolite 0.4 μM
[6] = HEK-293T, T-705 10 μM, antimetabolite 2.0 μM
[7] = HEK-293T, T-705 10 μM, antimetabolite 10.0 μM
[8] = T-705 0 μM, antimetabolite 0.08 μM
[9] = T-705 0 μM, antimetabolite 0.4 μM
[10] = T-705 0 μM, antimetabolite 2.0 μM
[11] = T-705 0 μM, antimetabolite 10.0 μM
[12] = HEK-293T, single agent, without T-705, read-out: replicon inhibiting percentage

NC(=O)c1nc(F)cnc1O [T-705, 6-Fluoro-3-hydroxy-2-pyrazinecarboxamide] was tested, and the “LogTCID50 value that shows the effect of reducing the virus amount with respect to the infection control” value (Punta Toro virus) was 1.0*, the IC50 ([1]; read-out: T-705 50% concentration (50% inhibitory concentration of T-705), 6-Mercaptopurine concentration 0 μM) was 1.97 µM and the IC50 ([1]; read-out: T-705 50% concentration (50% inhibitory concentration of T-705), 6-Mercaptopurine concentration 0.1 μM) was 1.83 µM. It also gave an IC50 ([1]; read-out: T-705 50% concentration (50% inhibitory concentration of T-705), 6-Mercaptopurine concentration 0.3 μM) of 1.32 µM, an IC50 ([1]; read-out: T-705 50% concentration (50% inhibitory concentration of T-705), 6-Mercaptopurine concentration 1 μM) of 0.77 µM and an IC50 ([1]; read-out: T-705 50% concentration (50% inhibitory concentration of T-705), 6-Mercaptopurine concentration 3 μM) of 0.7 µM. It also gave an IC50 ([1]; read-out: T-705 50% concentration (50% inhibitory concentration of T-705), 6-Mercaptopurine concentration 10 μM) of 0.38 µM, an IC50 ([2]; 6-Mercaptopurine concentration 0 μM) of 310 µM and an IC50 ([2]; 6-Mercaptopurine concentration 0.03 μM) of 303 µM. The IC50 ([2]; 6-Mercaptopurine concentration 0.09 μM) was 275 µM, the IC50 ([2]; 6-Mercaptopurine concentration 0.27 μM) was 219 µM and the IC50 ([2]; 6-Mercaptopurine concentration 0.82 μM) was 163 µM. It also gave an IC50 ([2]; 6-Mercaptopurine concentration 2.5 μM) of 67 µM, an IC50 ([2]; 6-Mercaptopurine concentration 7.4 μM) of 16 µM and an IC50 ([2]; 6-Mercaptopurine concentration 22 μM) of 2.3 µM. For the same molecule, the IC50 ([2]; 6-Mercaptopurine concentration 67 μM) was 5.1 µM, the IC50 ([2]; 6-Mercaptopurine concentration 200 μM) was 23 µM and the IC50 ([2]; Methotrexate concentration 0 μM) was 314 µM. For the same molecule, the IC50 ([2]; Methotrexate concentration 0.08 μM) was 46 µM, the IC50 ([2]; Methotrexate concentration 0.16 μM) was 43 µM and the IC50 ([2]; Methotrexate concentration 0.31 μM) was 41 µM. It also gave an IC50 ([2]; Methotrexate concentration 0.63 μM) of 47 µM, an IC50 ([2]; Methotrexate concentration 1.25 μM) of 40 µM and an IC50 ([2]; Methotrexate concentration 2.5 μM) of 38 µM. The IC50 ([2]; Methotrexate concentration 5 μM) was 39 µM, the IC50 ([2]; Methotrexate concentration 10 μM) was 28 µM and the IC50 ([2]; Methotrexate concentration 20 μM) was 30 µM. The IC50 ([2]; Pralatrexate concentration 0 μM) was 304 µM, the IC50 ([2]; Pralatrexate concentration 0.08 μM) was 32 µM and the IC50 ([2]; Pralatrexate concentration 0.16 μM) was 31 µM. The IC50 ([2]; Pralatrexate concentration 0.31 μM) was 25 µM, the IC50 ([2]; Pralatrexate concentration 0.63 μM) was 29 µM and the IC50 ([2]; Pralatrexate concentration 1.25 μM) was 18 µM. For the same molecule, the IC50 ([2]; Pralatrexate concentration 2.5 μM) was 24 µM, the IC50 ([2]; Pralatrexate concentration 5 μM) was 25 µM and the IC50 ([2]; Pralatrexate concentration 10 μM) was 22 µM. The IC50 ([2]; Pralatrexate concentration 20 μM) was 23 µM, the Replicon inhibiting percentage ([2]; T-705 10 μM, antimetabolite 0 μM (T-705 alone)) was 0.58% and 2.2% and −1.8% and −2.3% and −7.8% and the “minimum drug concentration which exhibits complete CPE suppression effect” value ([3]; 6-mercaptopurine (10 μM) added) was 0.3 µM. For the same molecule, the “minimum drug concentration which exhibits complete CPE suppression effect” value ([3]; 6-mercaptopurine (10 μM) and Ribavirin (3 μM) added) was 0.1 µM and the “minimum drug concentration which exhibits complete CPE suppression effect” value ([3]; used alone) was 3 µM.
In the case of NC(=O)c1csc([C@@H]2O[C@H](CO)[C@@H](O)[C@H]2O)n1 [Tiazofurin, tiazofurin], the “LogTCID50 value that shows the effect of reducing the virus amount with respect to the infection control” value (Punta Toro virus) is reported as “excellent effect of reducing the virus amount”.
For Sc1ncnc2nc[nH]c12 [6-Mercaptopurine, 6-mercaptopurine], the “amount of T-705RTP in the cells after the treatment of T-705” value (293T cells) was “increased”, the CPE inhibitory effects ([1]; single agent, 10 μM) was “did not exhibit CPE inhibitory effects” and the inhibition at 10 µM [2, 4] was 1.8%. The inhibition at 10 µM [2, 5] was 3.7%, the inhibition at 10 µM [2, 6] was 17% and the inhibition at 10 µM [2, 7] was 38%. It also gave an inhibition at 200 µM ([2]; HEK-293T, single agent, <200 μM, without T-705, read-out: replicon inhibiting percentage) of under 50%, a Replicon inhibiting percentage [2, 8] of −1.1% and a Replicon inhibiting percentage [2, 9] of 1.5%. The Replicon inhibiting percentage [2, 10] was 2.7% and the Replicon inhibiting percentage [2, 11] was 8.2%.
C#CCC(Cc1cnc2nc(N)nc(N)c2n1)c1ccc(C(=O)N[C@@H](CCC(=O)O)C(=O)O)cc1 (some centres unmarked) [Pralatrexate, pralatrexate] gave an inhibition at 10 µM [2, 4] of 33%, an inhibition at 10 µM [2, 5] of 33% and an inhibition at 10 µM [2, 6] of 33%. For the same molecule, the inhibition at 10 µM [2, 7] was 35%, the inhibition at 20 µM [2, 12] was under 50% and the Replicon inhibiting percentage [2, 8] was 24%. The Replicon inhibiting percentage [2, 9] was 23%, the Replicon inhibiting percentage [2, 10] was 2% and the Replicon inhibiting percentage [2, 11] was 23%.
In the case of NC(=O)c1nccnc1O [T-1105, 3-hydroxy-pyrazinecarboxamide], the “LogTCID50 value that shows the effect of reducing the virus amount with respect to the infection control” value (Punta Toro virus) is reported as 0.0.
Nc1nc2nc[nH]c2c(=S)[nH]1 [Thioguanine] showed an inhibition at 10 µM [2, 4] of -1.2%, an inhibition at 10 µM [2, 6] of 14% and an inhibition at 10 µM [2, 7] of 23%. It also gave a Replicon inhibiting percentage [2, 8] of −4.8%, a Replicon inhibiting percentage [2, 9] of −5.4% and a Replicon inhibiting percentage [2, 10] of −3.7%. For the same molecule, the Replicon inhibiting percentage [2, 11] was 12%.
Cn1cnc([N+](=O)[O-])c1Sc1ncnc2nc[nH]c12 [Azathioprine, azathioprine] gave an inhibition at 10 µM [2, 4] of 3.3%, an inhibition at 10 µM [2, 5] of 1.3% and an inhibition at 10 µM [2, 6] of 5.9%. The inhibition at 10 µM [2, 7] was 26%, the Replicon inhibiting percentage [2, 8] was 3.1% and the Replicon inhibiting percentage [2, 9] was −6.1%. The Replicon inhibiting percentage [2, 10] was 3.4% and the Replicon inhibiting percentage [2, 11] was 5.8%.
In the case of NC(=O)c1ncn([C@@H]2O[C@H](CO)[C@@H](O)[C@H]2O)n1 [Ribavirin], the “minimum drug concentration which exhibits complete CPE suppression effect” value ([3]; used alone) is reported as 30 µM.
CN(Cc1cnc2nc(N)nc(N)c2n1)c1ccc(C(=O)N[C@@H](CCC(=O)O)C(=O)O)cc1 [Methotrexate, methotrexate] gave an inhibition at 10 µM [2, 4] of 11%, an inhibition at 10 µM [2, 5] of 36% and an inhibition at 10 µM [2, 6] of 34%. The inhibition at 10 µM [2, 7] was 37%, the inhibition at 20 µM [2, 12] was under 50% and the Replicon inhibiting percentage [2, 8] was 1.3%. It also gave a Replicon inhibiting percentage [2, 9] of 18%, a Replicon inhibiting percentage [2, 10] of 20% and a Replicon inhibiting percentage [2, 11] of 19%.
Cn1c(=O)c2[nH]cnc2n(C)c1=O [Theophylline, theophylline] was tested, and the “LogTCID50 value that shows the effect of reducing the virus amount with respect to the infection control” value (Punta Toro virus) was “excellent effect of reducing the virus amount”.
